Test results: patent US9707305B2, “Formulas for diagnosing and treating hormone-dependent cancers and cancers of the organs responsible for steroid hormone synthesis” (Commissariat à l'énergie atomique et aux énergies …, priority 2011, dated 2017)

How the values were obtained:
[1] = Biodistribution of the nano-emulsion of Example 1.1 (radioactivity and fluorescence per organ); assay type: in vivo
Protocol: (§1) In the following examples, the radioactivity was counted with the TRiCarb Counter (Ref: Packard, Liquid Scintillation Analyzers; Models 2200CA).
(§2) Fluobeam 700 (Fluoptics) is the apparatus with which the whole of the organs from the biodistribution were analyzed in fluorescence as well as the one with which the biodistribution kinetics of the nano-emulsions were established in vivo. This imaging system allows viewing of the fluorescence in spectral bands from 700 to 850 nm for a 650 nm excitation. The apparatus consists of an electric case containing the laser of class 3B, its power supply and an optical head containing the CCD camera.
The nano-emulsions of Example 1 were injected into FVB female and male mice. As a comparison, a mixture of three tracers ([3H]CHE, [14C]CO and DiD) (not formulated as a nano-emulsion) was injected in order to observe the distribution of the tracers in the absence of droplets being used as a distribution carrier.
Tables 6 to 14 provide the biodistribution results of each tracer ([3H]CHE, [14C]CO and DiD) expressed as a percentage of the dose injected per gram of tissue (or [3H]CHE and [14C]CO) or as fluorescence intensity (for DiD) depending on the organ of the mouse, 15 minutes (Table 6), 2 hours (Table 7), 4 hours (Table 8), 6 hours (Table 9), 16 hours (Table 10), 24 hours (Table 11), 72 hours (Table 12), 120 hours (Table 13) and 168 hours (Table 14), after injection into an FVB female mouse of the nano-emulsion of Example 1.1. (nano-emulsion according to the invention comprising the three tracers ([3H]CHE, [14C]CO and DiD).

[2] = Biodistribution of the mixture of three free tracers (not formulated as nano-emulsion), comparative; assay type: in vivo; conditions: FVB female mouse
Protocol: as §1, §2
As a comparison, a mixture of three tracers ([3H]CHE, [14C]CO and DiD) (not formulated as a nano-emulsion) was injected in order to observe the distribution of the tracers in the absence of droplets being used as a distribution carrier.

[3] = 48 h (Table 11 head) after injection of nano-emulsion of Example 1.1, FVB female mouse
[4] = 72 h after injection of nano-emulsion of Example 1.1, FVB female mouse
[5] = 120 h after injection of nano-emulsion of Example 1.1, FVB female mouse
[6] = 2 h after injection of free tracers (not nano-emulsion)
[7] = 6 h after injection of free tracers (not nano-emulsion)
[8] = 16 h after injection of free tracers (not nano-emulsion)
[9] = 24 h after injection of free tracers (not nano-emulsion)

- biodistribution, Muscle (MEAN) [1, 3]: 0.34 % of injected dose per gram of
- biodistribution, Ovary (MEAN) [1, 3]: 6.46 % of injected dose per gram of
- biodistribution, Pancreas (MEAN) [1, 3]: 0.70 % of injected dose per gram of
- biodistribution, Salivary glands (MEAN) [1, 3]: 1.20 % of injected dose per gram of
- biodistribution, Spleen (MEAN) [1, 3]: 1.03 % of injected dose per gram of
- biodistribution, Uterus (MEAN) [1, 3]: 1.24 % of injected dose per gram of
- biodistribution, Adrenal glands (MEAN) [1, 4]: 9.36 % of injected dose per gram of
- biodistribution, Brain (MEAN) [1, 4]: 0.10 % of injected dose per gram of
- biodistribution, Fat (MEAN) [1, 4]: 5.01 % of injected dose per gram of
- biodistribution, Heart (MEAN) [1, 4]: 0.64 % of injected dose per gram of
- biodistribution, Intestine (MEAN) [1, 4]: 0.62 % of injected dose per gram of
- biodistribution, Kidney (MEAN) [1, 4]: 0.66 % of injected dose per gram of
- biodistribution, Liver (MEAN) [1, 4]: 0.75 % of injected dose per gram of
- biodistribution, Lungs (MEAN) [1, 4]: 0.88 % of injected dose per gram of
- biodistribution, Muscle (MEAN) [1, 4]: 0.28 % of injected dose per gram of
- biodistribution, Ovary (MEAN) [1, 4]: 3.04 % of injected dose per gram of
- biodistribution, Pancreas (MEAN) [1, 4]: 0.50 % of injected dose per gram of
- biodistribution, Salivary glands (MEAN) [1, 4]: 1.16 % of injected dose per gram of
- biodistribution, Spleen (MEAN) [1, 4]: 0.75 % of injected dose per gram of
- biodistribution, Uterus (MEAN) [1, 4]: 1.00 % of injected dose per gram of
- biodistribution, Fat (MEAN) [1, 5]: 2.42 % of injected dose per gram of
- biodistribution, Kidney (MEAN) [1, 5]: 0.40 % of injected dose per gram of
- biodistribution, Adrenal glands (MEAN) [2, 6]: 3.25 % of injected dose per gram of
- biodistribution, Brain (MEAN) [2, 6]: 0.23 % of injected dose per gram of
- biodistribution, Fat (MEAN) [2, 6]: 0.69 % of injected dose per gram of
- biodistribution, Heart (MEAN) [2, 6]: 0.59 % of injected dose per gram of
- biodistribution, Intestine (MEAN) [2, 6]: 0.76 % of injected dose per gram of
- biodistribution, Kidney (MEAN) [2, 6]: 0.89 % of injected dose per gram of
- biodistribution, Liver (MEAN) [2, 6]: 4.79 % of injected dose per gram of
- biodistribution, Lung (MEAN) [2, 6]: 72.86 % of injected dose per gram of
- biodistribution, Muscle (MEAN) [2, 6]: 0.38 % of injected dose per gram of
- biodistribution, Ovary (MEAN) [2, 6]: 1.57 % of injected dose per gram of
- biodistribution, Pancreas (MEAN) [2, 6]: 0.47 % of injected dose per gram of
- biodistribution, Salivary gland (MEAN) [2, 6]: 0.74 % of injected dose per gram of
- biodistribution, Spleen (MEAN) [2, 6]: 3.65 % of injected dose per gram of
- biodistribution, Uterus (MEAN) [2, 6]: 0.49 % of injected dose per gram of
- biodistribution, Adrenal glands (MEAN) [2, 7]: 3.56 % of injected dose per gram of
- biodistribution, Brain (MEAN) [2, 7]: 0.26 % of injected dose per gram of
- biodistribution, Fat (MEAN) [2, 7]: 1.05 % of injected dose per gram of
- biodistribution, Heart (MEAN) [2, 7]: 1.21 % of injected dose per gram of
- biodistribution, Intestine (MEAN) [2, 7]: 1.21 % of injected dose per gram of
- biodistribution, Kidney (MEAN) [2, 7]: 1.36 % of injected dose per gram of
- biodistribution, Liver (MEAN) [2, 7]: 5.53 % of injected dose per gram of
- biodistribution, Lung (MEAN) [2, 7]: 142.66 % of injected dose per gram of
- biodistribution, Muscle (MEAN) [2, 7]: 0.53 % of injected dose per gram of
- biodistribution, Ovary (MEAN) [2, 7]: 2.12 % of injected dose per gram of
- biodistribution, Pancreas (MEAN) [2, 7]: 0.76 % of injected dose per gram of
- biodistribution, Salivary gland (MEAN) [2, 7]: 1.15 % of injected dose per gram of
- biodistribution, Spleen (MEAN) [2, 7]: 3.53 % of injected dose per gram of
- biodistribution, Uterus (MEAN) [2, 7]: 0.46 % of injected dose per gram of
- biodistribution, Adrenal gland (MEAN) [2, 8]: 4.24 % of injected dose per gram of
- biodistribution, Brain (MEAN) [2, 8]: 0.30 % of injected dose per gram of
- biodistribution, Fat (MEAN) [2, 8]: 1.39 % of injected dose per gram of
- biodistribution, Heart (MEAN) [2, 8]: 1.87 % of injected dose per gram of
- biodistribution, Intestine (MEAN) [2, 8]: 1.09 % of injected dose per gram of
- biodistribution, Kidney (MEAN) [2, 8]: 1.82 % of injected dose per gram of
- biodistribution, Liver (MEAN) [2, 8]: 11.86 % of injected dose per gram of
- biodistribution, Lung (MEAN) [2, 8]: 261.87 % of injected dose per gram of
- biodistribution, Muscle (MEAN) [2, 8]: 0.43 % of injected dose per gram of
- biodistribution, Ovary (MEAN) [2, 8]: 1.64 % of injected dose per gram of
- biodistribution, Pancreas (MEAN) [2, 8]: 1.00 % of injected dose per gram of
- biodistribution, Salivary gland (MEAN) [2, 8]: 1.29 % of injected dose per gram of
- biodistribution, Spleen (MEAN) [2, 8]: 5.32 % of injected dose per gram of
- biodistribution, Uterus (MEAN) [2, 8]: 1.00 % of injected dose per gram of
- biodistribution, Adrenal gland (MEAN) [2, 9]: 2.60 % of injected dose per gram of
- biodistribution, Brain (MEAN) [2, 9]: 0.22 % of injected dose per gram of
- biodistribution, Fat (MEAN) [2, 9]: 1.64 % of injected dose per gram of
- biodistribution, Heart (MEAN) [2, 9]: 0.82 % of injected dose per gram of
- biodistribution, Intestine (MEAN) [2, 9]: 0.81 % of injected dose per gram of
- biodistribution, Kidney (MEAN) [2, 9]: 1.02 % of injected dose per gram of
- biodistribution, Liver (MEAN) [2, 9]: 3.29 % of injected dose per gram of
- biodistribution, Lung (MEAN) [2, 9]: 29.91 % of injected dose per gram of
- biodistribution, Muscle (MEAN) [2, 9]: 0.79 % of injected dose per gram of
- biodistribution, Ovary (MEAN) [2, 9]: 1.40 % of injected dose per gram of
- biodistribution, Pancreas (MEAN) [2, 9]: 0.95 % of injected dose per gram of
- biodistribution, Salivary gland (MEAN) [2, 9]: 0.86 % of injected dose per gram of
- biodistribution, Spleen (MEAN) [2, 9]: 2.27 % of injected dose per gram of
- biodistribution, Uterus (MEAN) [2, 9]: 0.62 % of injected dose per gram of
- accumulation of the free radioactive tracers in the lungs ([2]; Tables 2 to 5 (2 to 24 h), free tracers): strong accumulation
Structure (SMILES): CCCCCCCC/C=C\CCCCCCC[14C](=O)O[C@H]1CC[C@@]2(C)C(=CC[C@H]3[C@@H]4CC[C@H]([C@H](C)CCCC(C)C)[C@@]4(C)CC[C@@H]32)C1 [[14C]CO, cholesteryl oleate]
